For experiment [1], the system named is SARS-CoV-2 strain JPN/TY/WK-521. Briefly: Antiviral assay, quantitative VeroE6 cell-based assay with RNA-qPCR. A general note: Quantitative PCR measures a nucleic acid by following its amplification.
In experiment [2] the target is T1, SARS-CoV-2 3CLpro (Severe acute respiratory syndrome coronavirus 2, UniProt P0DTD1). As to the kind of experiment: SARS-CoV-2 3CLpro inhibition assay, continuous fluorescence with FRET substrate UIVT3. Format: biochemical.
In experiment [3] the test system is SARS-CoV-2 strain JPN/TY/WK-521. More on the design: method as in PMID 32820005, PMID 33510133. The note with it: VeroE6 cells; read-out: antiviral EC50; cited from earlier work.
The test system of experiment [4] is SARS-CoV-2^wk-521. More on the design: method as in PMID 32820005, PMID 33510133. The note with it: VeroE6 cells; cited from earlier work.
Experiment [5] has as its system SARS-CoV-2. As to the kind of experiment: Antiviral CPE protection assay in VeroE6 cells in the presence of P-glycoprotein inhibitor CP-100356 (CellTiter-Glo). The note with it: 2µM CP-100356, MOI 0.01, 72 hours. Format: cell-based. (In general: Cellular ATP, detected with luciferase, serves as a proxy for viable cell number.)
Experiment [6] has as its system SARS-CoV 3CL protease. The note with it: Figure 1; read-out: IC50 (SARS-CoV 3C); cited from earlier work.
In experiment [7] the test system is SARS-CoV. The note with it: cited from earlier work.
The target in experiment [8] is T1, SARS-CoV-2 3CLpro. Briefly: Mass analysis of enzyme-inhibitor complex (LC-MS). The note with it: 2 μM protein, 20 μM compound, ten minutes. Here is the method:
The enzyme inhibitory activity (IC50 values) of synthetic active esters was assessed using a continuous fluorescence assay and the FRET-based substrate UIVT3 (HiLyteFluor488^TM-[…] -QXL520-NH2 (HPLC > 90%); Anaspec, Fremont, CA, USA) described by us previously. The antiviral activity (EC50 value) of compounds was evaluated using quantitative VeroE6 cell-based assay with RNA-qPCR as described by us recently. […] We presume that the mode of inhibition involves covalent bond formation with catalytic Cys145 as observed in our previous X-ray structural analysis of inhibitor-bound SARS-CoV-2 3CL protease as well as mass spectral analysis. The irreversible enzyme acylation of the NSAIDs-based inhibitor was examined by using […]. Authentic SARS-CoV-2 3CLpro was incubated with inhibitor 8a and then analyzed with untreated enzyme. As expected, we were able to see a signal for enzyme-bound compound 8a on the LC–MS spectrum that corresponds to acylation of 3CL protease with a mass shift of +212 Daltons.
Purified SARS-CoV-2 3CLpro was injected onto a Superdex™ 200 Increase 10/300 GL gel filtration column (GE Healthcare) equilibrated in 20 mM HEPES pH 7.5. […]
Positive ion spectra obtained were analyzed using Agilent MassHunter Qualitative Analysis Software B.06 and the deconvolution spectra were generated using Agilent MassHunter BioConfirm software B.06.

Setting [9] is: Severe acute respiratory syndrome coronavirus 2, Vero C1008, 72 h, VeroE6 cells, RNA-qPCR, MOI 0.05, 72 h, read-out: SARS-CoV-2 EC50.
Setting [10] is: 10 min pre-incubation of enzyme with compound, read-out: SARS CoV-2 3CLpro IC50.
Setting [11] is: VeroE6 cells, RNA-qPCR, MOI 0.05, 72 h, read-out: SARS-CoV-2 EC50.
Where [12] appears, read: values given in nM, read-out: SARS-CoV-2 3CLpro enzyme IC50.

Each structure is given as a SMILES string. Like-named read-outs stand apart in the source and are kept apart here.

What is called EC50 is the concentration needed to bring the measured effect to its halfway point. Turning to `O=C(Oc1cncc(Cl)c1)c1ccccc1O` [C00006], in experiment [1] (setting [9]), the EC50 was over 100 µM.
Take `O=C(Oc1ccccc1C(=O)Oc1cncc(Cl)c1)c1ccccc1O` [Compound 12b, 5-chloropyridin-3-yl 2-((2-hydroxybenzoyl)oxy)benzoate]: in experiment [2], the “fold reduction in enzyme activity versus monoester 12a” value is reported as 5 fold. Further, the EC50 in experiment [1] (setting [9]) stood at 64 µM.
On to `CCC(CC)COC(=O)[C@H](C)N[P@](=O)(OC[C@H]1O[C@@](C#N)(c2ccc3c(N)ncnn23)[C@H](O)[C@@H]1O)Oc1ccccc1` [Compound 5, remdesivir, reference compound], for which the EC50 in experiment [1] (Severe acute respiratory syndrome coronavirus 2, Vero C1008, read-out: antiviral EC50 (table footnote a, reference compounds), VeroE6 cells) came out at 2.4 µM.
As a reminder, the IC50 is the concentration that inhibits the measured activity by half. With `CC(=O)Oc1ccccc1C(=O)Oc1cncc(Cl)c1` [C00001], the IC50 in experiment [2] (setting [10]) is 360 nM.
For the molecule `COc1ccc2c(c1)c(CC(=O)Oc1cncc(Cl)c1)c(C)n2C(=O)c1ccc(Cl)cc1` [C00005], in experiment [2] (setting [10]), the 50% inhibitory concentration (IC50) was found to be 5320 nM. Also, the EC50 in experiment [1] (setting [11]) stood at 30.2 µM.
`Cc1ccc(C(=O)Oc2cncc(Cl)c2)c(O)c1` [C00010]: the IC50 in experiment [2] (setting [10]) worked out at 540 nM. For the same molecule, the EC50 in experiment [1] (setting [9]) was over 100 µM.
As to `CC(C)Cc1ccc(C(C)C(=O)Oc2cncc(Cl)c2)cc1` (stereo not shown) [C00004], in experiment [2] (setting [10]), the IC50 worked out at 810 nM. Moreover, the EC50 in experiment [1] (setting [9]) was over 100 µM.
As to `CC(=O)Nc1cc(C(=O)Oc2cncc(Cl)c2)ccc1F` [C00019], in experiment [2] (setting [10]), the IC50 worked out at 1510 nM. The EC50 in experiment [1] (setting [9]) is over 100 µM.
In the same order, the values of `Cc1cccc(C(=O)Oc2cncc(Cl)c2)c1O` [C00008] are 650 nM and over 100 µM.
For `CC(=O)Nc1cc(C(=O)Oc2cncc(Cl)c2)ccc1F` [Compound 19a, 5-chloropyridin-3-yl 3-acetamido-4-fluorobenzoate], the “enzyme inhibitory activity (in words)” value in experiment [2] is reported as “low micromolar range”.
For `Cc1cccc(O)c1C(=O)Oc1cncc(Cl)c1` [C00015], the IC50 in experiment [2] (setting [10]) came out at 4260 nM. For the same molecule, the EC50 in experiment [1] (setting [9]) is over 100 µM.
Turning to `CC(=O)Nc1cccc(C(=O)Oc2cncc(Cl)c2)c1` [Compound 18a, 5-chloropyridin-3-yl 3-acetamidobenzoate], the “enzyme inhibitory activity (in words)” value in experiment [2] is “low micromolar range”.
`Cc1ccc(O)c(C(=O)Oc2ccc(C)cc2C(=O)Oc2ccc(C)cc2C(=O)Oc2cncc(Cl)c2)c1` [C00014]: the IC50 in experiment [2] (setting [10]) came to 3730 nM. In addition, the EC50 in experiment [1] (setting [9]) is over 100 µM.
`O=C(Oc1cncc(Cl)c1)c1cccc2c1CCN2` [Compound 4]: the EC50 in experiment [3] was 15 µM. Also, in experiment [4], the “activity in immunocytochemistry assay (in words)” value is “potent enzyme inhibitory and antiviral activity”.
As to `Cc1ccc(O)c(C(=O)Oc2cncc(Cl)c2)c1` [Compound 15a, 5-chloropyridin-3-yl 2-hydroxy-5-methylbenzoate], in experiment [1] (setting [9]), the EC50 lay within 24 to 64 µM. For the same molecule, the “antiviral activity in the presence of P-glycoprotein inhibitor CP-100356” value in experiment [5] was “none of these compounds exhibited any significant antiviral activity”.
On to `O=C(Oc1cncc(Cl)c1)c1c(O)cccc1F` [C00017], for which the IC50 in experiment [2] (setting [10]) turned out to be 108000 nM. Besides, the EC50 in experiment [1] (setting [9]) was over 100 µM.
In the same order, the values of `COc1ccc2cc([C@H](C)C(=O)Oc3cncc(Cl)c3)ccc2c1` [C00002] are 670 nM and over 100 µM.
With `CC(C)Cc1ccc(C(C)C(=O)Oc2cncc(Cl)c2)cc1` (stereo not shown) [Compound 10a, 5-chloropyridin-3-yl 2-(4-isobutylphenyl)propanoate], the IC50 in experiment [2] (setting [12]) came to 810 nM.
As to `Cc1cccc(C(=O)Oc2c(C)cccc2C(=O)Oc2cncc(Cl)c2)c1O` [C00009], the IC50 in experiment [2] (setting [10]) is 4900 nM. Moreover, the EC50 in experiment [1] (setting [11]) amounted to 23.8 µM.
On to `O=C(Oc1cncc(Cl)c1)c1cccc2[nH]ccc12` [Compound 3], for which, in experiment [4], the “activity in immunocytochemistry assay (in words)” value was “blocked the infectivity and cytopathic effect”.
Regarding `Cc1ccc(C(=O)Oc2cncc(Cl)c2)c(O)c1` [Compound 14a, 5-chloropyridin-3-yl 2-hydroxy-4-methylbenzoate], in experiment [5], the “antiviral activity in the presence of P-glycoprotein inhibitor CP-100356” value was “none of these compounds exhibited any significant antiviral activity”.
Take `O=C(Oc1cncc(Cl)c1)c1cccs1` [Compound 2]: the IC50 in experiment [6] is 0.5 µM. Moreover, the “antiviral activity (in words)” value in experiment [7] is “did not show antiviral activity”.
Consider `Cc1ccc(O)c(C(=O)Oc2cncc(Cl)c2)c1` [C00012], for which the IC50 in experiment [2] (setting [10]) was determined as 390 nM. Also, the EC50 in experiment [1] (setting [11]) worked out at 46.3 µM.
For `Cc1cccc(C(=O)Oc2cncc(Cl)c2)c1O` [Compound 13a, 5-chloropyridin-3-yl 2-hydroxy-3-methylbenzoate], the IC50 in experiment [2] (setting [12]) came out at 650 nM.
As for `CC(=O)Nc1cccc(C(=O)Oc2cncc(Cl)c2)c1` [C00018], the IC50 in experiment [2] (setting [10]) was determined as 1110 nM. Also, the EC50 in experiment [1] (setting [9]) is over 100 µM.
In the same order, the values of `Cc1cccc(C(=O)Oc2c(C)cccc2C(=O)Oc2cncc(Cl)c2)c1O` [Compound 13b, 5-chloropyridin-3-yl 2-((2-hydroxy-3-methylbenzoyl)oxy)-3-methylbenzoate] are 4900 nM and 24 µM.
Take `Cc1ccc(O)c(C(=O)Oc2ccc(C)cc2C(=O)Oc2cncc(Cl)c2)c1` [C00013]: the IC50 in experiment [2] (setting [10]) stood at 740 nM. The EC50 in experiment [1] (setting [11]) came to 48.3 µM.
For `COc1ccc2cc([C@H](C)C(=O)Oc3cncc(Cl)c3)ccc2c1` [Compound 8a, 5-chloropyridin-3-yl (S)-2-(6-methoxynaphthalen-2-yl)propanoate], the IC50 in experiment [2] (setting [12]) stood at 670 nM. The “mass shift of 3CL protease on acylation by inhibitor” value in experiment [8] is given as “+212 Daltons”.
In the case of `O=C(On1nnc2ccccc21)c1ccc2[nH]ccc2c1` [Compound 1], the IC50 in experiment [6] was 0.2 µM. Besides, the “antiviral activity (in words)” value in experiment [7] was “did not show antiviral activity”.
With `Cc1ccc(C(=O)Oc2cc(C)ccc2C(=O)Oc2cncc(Cl)c2)c(O)c1` [C00011], in experiment [2] (setting [10]), the IC50 was determined as 1400 nM. For the same molecule, in experiment [1] (setting [9]), the concentration giving a half-maximal response (EC50) was over 100 µM.
Turning to `Cc1cccc(O)c1C(=O)Oc1cccc(C)c1C(=O)Oc1cncc(Cl)c1` [C00016], the 50% inhibitory concentration (IC50) in experiment [2] (setting [10]) was 15400 nM. The EC50 in experiment [1] (setting [9]) is over 100 µM.
Take `COc1ccc2c(c1)c(CC(=O)Oc1cncc(Cl)c1)c(C)n2C(=O)c1ccc(Cl)cc1` [Compound 11a, 5-chloropyridin-3-yl 2-(1-(4-chlorobenzoyl)-5-methoxy-2-methyl-1H-indol-3-yl)acetate]: the “enzyme inhibitory activity (in words)” value in experiment [2] is given as “significant reduction in enzyme activity”. In addition, in experiment [1] (Severe acute respiratory syndrome coronavirus 2, Vero C1008, 72 h, read-out: SARS-CoV-2 EC50, VeroE6 cells, RNA-qPCR, MOI 0.05, 72 h), the EC50 was 30 µM. For the same molecule, the “antiviral activity in the presence of P-glycoprotein inhibitor CP-100356” value in experiment [5] is recorded as “none of these compounds exhibited any significant antiviral activity”.
`O=C(Oc1cncc(Cl)c1)c1ccccc1O` [Compound 12a, 5-chloropyridin-3-yl 2-hydroxybenzoate]: the IC50 in experiment [2] (setting [10]) worked out at 3470 nM.
In the case of `COc1ccc2cc([C@@H](C)C(=O)Oc3cncc(Cl)c3)ccc2c1` [Compound 9a, 5-chloropyridin-3-yl (R)-2-(6-methoxynaphthalen-2-yl)propanoate], in experiment [2], the “fold improvement of enzyme IC50 over the (S)-naproxen ester 8a” value is on record as “over 4 fold”. Besides, the IC50 in experiment [2] (setting [12]) is 160 nM. Further, the “antiviral activity in the presence of P-glycoprotein inhibitor CP-100356” value in experiment [5] was “none of these compounds exhibited any significant antiviral activity”.
Regarding `COc1ccc2cc([C@@H](C)C(=O)Oc3cncc(Cl)c3)ccc2c1` [C00003], the IC50 in experiment [2] (setting [10]) was 160 nM. Moreover, the EC50 in experiment [1] (setting [9]) is over 100 µM.
As to `O=C(Oc1ccccc1C(=O)Oc1cncc(Cl)c1)c1ccccc1O` [C00007], in experiment [2] (setting [10]), the half-maximal inhibitory concentration (IC50) was determined as 17100 nM. In addition, in experiment [1] (setting [11]), the EC50 was determined as 63.7 µM.
